The series in a line: Gravimetric vapor sorption (GVS) analysis / hygroscopicity. In kind it is physicochemical. Particulars: GVS at 25° C., FIG. 4. The procedure:
Gravimetric vapor sorption analysis was performed with SPS 100n (ProUmid GmbH & Co. KG). An appropriate amount of the sample was placed into a tared aluminum pan without any pre-treatment. The analysis was run at a temperature of 25° C. with the following humidity program: 40%-0%-95%-40% in steps of 5% with maximum equilibration time of 24 h at each step. Analyzing software was ProUmid Excel template #SPS_4_3_23_E2010_drycorr.xltm.

As to “2-(3-{5-[(R)-(1,3-dimethyl-azetidin-3-yl)-hydroxy-(4-isopropyl-phenyl)-methyl]-pyridin-3-yl}-[1,2,4]oxadiazol-5-yl)-propan-2-ol adipic acid salt”, the “Hygroscopicity classification acc. to Eur. Phar.” value is recorded as “is classified as non-hygroscopic acc. to Eur. Phar”. The “Hygroscopicity: water uptake” value (between 40% and 80% RH) is “Less than 0.1% water uptake between 40% and 80% RH. Sample”.

The values above are taken from patent US20260272902A1, “C[…] ACID SALT FORM OF A CCR6 ANTAGONIST” (Idorsia Pharmaceuticals Ltd, priority 2022, published 2026).
